Test results from US11814327B2, “Fertilizers containing animal nutrient core packet” (Pursell Agri-Tech, LLC, priority 2010, dated 2023).

Test system: spinach variety (Bloomsdale Long-Standing)
Test: Zinc uptake in spinach plants from application of fertilizer containing animal nutrient core packet (8-kg pot test)
Assay type: in vivo
Details: Soil applied Zn nutrient core product
Method: In this example tests were performed to quantify the incorporation of zinc in a common spinach variety (Bloomsdale Long-Standing) employing compositions of the present invention. The tests quantified the increase in leaf zinc content due to application of compositions of the present invention containing zinc. The impact of the present compositions on spinach biomass increase was not the primary objective. In addition to applications of the present compositions to soil, for comparative purposes, foliar application of zinc solutions were applied to spinach leaves. Direct foliar applications provide an indication of potentially maximum amounts of zinc uptake into the leaves. 1. Soil • 8 kg Greenville loam (fine, kaolinitic, thermic Rhodie Kandiudults), pH=6.2, organic matter=1.4%, CEC=5.2 cmol kg^−1. The soil has been depleted of nutrients by previous cropping of tomatoes and cabbage. 2. Experimental Units • The spinach was grown in 8-kg pots. Each pot was transplanted with two spinach seedlings on Mar. 5, 2010 3. Blanket Fertilizer Rates—Basal • All fertilizer materials were laboratory grade reagents to avoid contamination and antagonistic interaction with Zn, Fe and/or I. • Nitrogen: 250 mg N kg^−1 or 2 g N por^−1. […] Crop Data Analysis • The fresh and dried weight of spinach leaves was determined and analyzed for N, P, K, Zn, Fe and I. [table]

O=C([O-])CN(CCN(CC(=O)[O-])CC(=O)[O-])CC(=O)[O-].[Na+].[Na+].[Zn+2] [Zinc EDTA]
effectiveness as Zn source in the nutrient core in increasing Zn tissue content in spinach: more effective than ZnSO4
